Laboratory results taken from ChEMBL document CHEMBL3885881, “DrugMatrix”.

Species: Rattus norvegicus
Assay: DrugMatrix - Regimen: Daily Repeat
Type: toxicity, organism-based, Sprague-Dawley
Design: regimen Daily Repeat, gender Male, age 6-8 weeks
Details: in vivo, po, route oral GAVAGE, vehicle .5 % CMC; for ABSOLUTE BASOPHIL / ABSOLUTE EOSINOPHIL / ABSOLUTE LYMPHOCYTE / ABSOLUTE MONOCYTE / ABSOLUTE SEGMENTED NEUTROPHIL / BASOPHIL / EOSINOPHIL / ERYTHROCYTE COUNT / HEMATOCRIT / HEMOGLOBIN / LEUKOCYTE COUNT / LYMPHOCYTE / MEAN CORPUSCULAR HEMOGLOBIN / MEAN CORPUSCULAR HEMOGLOBIN CONCENTRATION / MEAN CORPUSCULAR VOLUME / MONOCYTE / NEUTROPHIL / NUCLEATED RED BLOOD CELLS / PLATELET COUNT: tissue Blood; for ALANINE AMINOTRANSFERASE / ALBUMIN / ALKALINE PHOSPHATASE / ASPARTATE AMINOTRANSFERASE / BLOOD UREA NITROGEN / CARBON DIOXIDE / CHLORIDE / CHOLESTEROL / CREATINE PHOSPHOKINASE / CREATININE / GLUCOSE / LACTATE DEHYDROGENASE / LIPASE / PHOSPHORUS / POTASSIUM / SODIUM / TOTAL BILIRUBIN / TOTAL PROTEIN / URIC ACID: tissue Plasma
[1] = 170 mg/kg, 72 h, dose level Low, time 3 day
[2] = 170 mg/kg, 120 h, dose level Low, time 5 day
[3] = 1700 mg/kg, 72 h, dose level High, time 3 day
[4] = 1700 mg/kg, 120 h, dose level High, time 5 day

O=C(O)c1ccccc1 [BENZOIC ACID]
ABSOLUTE BASOPHIL [1]: 0 CELLS/uL | ABSOLUTE EOSINOPHIL [1]: 0 CELLS/uL | ABSOLUTE LYMPHOCYTE [1]: 11616 CELLS/uL | ABSOLUTE MONOCYTE [1]: 0 CELLS/uL | ABSOLUTE SEGMENTED NEUTROPHIL [1]: 1417.33 CELLS/uL | BASOPHIL [1]: 0% | EOSINOPHIL [1]: 0% | ERYTHROCYTE COUNT [1]: 5.44 x10E6/uL | HEMATOCRIT [1]: 34.03% | HEMOGLOBIN [1]: 13.07 G/DL | LEUKOCYTE COUNT [1]: 13.03 x10E3/uL | LYMPHOCYTE [1]: 89.33% | MEAN CORPUSCULAR HEMOGLOBIN [1]: 24.03 pg | MEAN CORPUSCULAR HEMOGLOBIN CONCENTRATION [1]: 38.4 G/DL | MEAN CORPUSCULAR VOLUME [1]: 62.6 fL | MONOCYTE [1]: 0% | NEUTROPHIL [1]: 10.67% | NUCLEATED RED BLOOD CELLS [1]: 0 /100WBC | PLATELET COUNT [1]: 1319.33 x10E3/uL | ALANINE AMINOTRANSFERASE [1]: 59.67 u/L | ALBUMIN [1]: 4.13 G/DL | ALKALINE PHOSPHATASE [1]: 380 u/L | ASPARTATE AMINOTRANSFERASE [1]: 88 u/L | BLOOD UREA NITROGEN [1]: 17 mg/dL | CARBON DIOXIDE [1]: 29.33 mmol/L | CHLORIDE [1]: 100.67 MEQ/L | CHOLESTEROL [1]: 99 mg/dL | CREATINE PHOSPHOKINASE [1]: 286 u/L | CREATININE [1]: 0.23 mg/dL | GLUCOSE [1]: 150 mg/dL | LACTATE DEHYDROGENASE [1]: 280 u/L | LIPASE [1]: 10 u/L | PHOSPHORUS [1]: 13.27 mg/dL | POTASSIUM [1]: 6.52 MEQ/L | SODIUM [1]: 146.37 MEQ/L | TOTAL BILIRUBIN [1]: 0.17 mg/dL | TOTAL PROTEIN [1]: 5.97 G/DL | URIC ACID [1]: 1.6 mg/dL | ABSOLUTE BASOPHIL [2]: 0 CELLS/uL | ABSOLUTE EOSINOPHIL [2]: 64 CELLS/uL | ABSOLUTE LYMPHOCYTE [2]: 17040 CELLS/uL | ABSOLUTE MONOCYTE [2]: 0 CELLS/uL | ABSOLUTE SEGMENTED NEUTROPHIL [2]: 1696 CELLS/uL | BASOPHIL [2]: 0% | EOSINOPHIL [2]: 0.33% | ERYTHROCYTE COUNT [2]: 5.48 x10E6/uL | HEMATOCRIT [2]: 35.33% | HEMOGLOBIN [2]: 13.8 G/DL | LEUKOCYTE COUNT [2]: 18.8 x10E3/uL | LYMPHOCYTE [2]: 90.67% | MEAN CORPUSCULAR HEMOGLOBIN [2]: 25.23 pg | MEAN CORPUSCULAR HEMOGLOBIN CONCENTRATION [2]: 39.07 G/DL | MEAN CORPUSCULAR VOLUME [2]: 64.5 fL | MONOCYTE [2]: 0% | NEUTROPHIL [2]: 9% | NUCLEATED RED BLOOD CELLS [2]: 0 /100WBC | PLATELET COUNT [2]: 1165 x10E3/uL | ALANINE AMINOTRANSFERASE [2]: 57.33 u/L | ALBUMIN [2]: 4.23 G/DL | ALKALINE PHOSPHATASE [2]: 352 u/L | ASPARTATE AMINOTRANSFERASE [2]: 96.67 u/L | BLOOD UREA NITROGEN [2]: 15.67 mg/dL | CARBON DIOXIDE [2]: 24 mmol/L | CHLORIDE [2]: 103.67 MEQ/L | CHOLESTEROL [2]: 79 mg/dL | CREATINE PHOSPHOKINASE [2]: 445 u/L | CREATININE [2]: 0.21 mg/dL | GLUCOSE [2]: 164.67 mg/dL | LACTATE DEHYDROGENASE [2]: 554.67 u/L | LIPASE [2]: 9.67 u/L | PHOSPHORUS [2]: 12.87 mg/dL | POTASSIUM [2]: 6.28 MEQ/L | SODIUM [2]: 144.9 MEQ/L | TOTAL BILIRUBIN [2]: 0.23 mg/dL | TOTAL PROTEIN [2]: 6.17 G/DL | URIC ACID [2]: 2.2 mg/dL | ABSOLUTE BASOPHIL [3]: 0 CELLS/uL | ABSOLUTE EOSINOPHIL [3]: 95.33 CELLS/uL | ABSOLUTE LYMPHOCYTE [3]: 13599.67 CELLS/uL | ABSOLUTE MONOCYTE [3]: 51.33 CELLS/uL | ABSOLUTE SEGMENTED NEUTROPHIL [3]: 1753.67 CELLS/uL | BASOPHIL [3]: 0% | EOSINOPHIL [3]: 0.67% | ERYTHROCYTE COUNT [3]: 6 x10E6/uL | HEMATOCRIT [3]: 35.93% | HEMOGLOBIN [3]: 14.17 G/DL | LEUKOCYTE COUNT [3]: 15.5 x10E3/uL | LYMPHOCYTE [3]: 87.67% | MEAN CORPUSCULAR HEMOGLOBIN [3]: 23.6 pg | MEAN CORPUSCULAR HEMOGLOBIN CONCENTRATION [3]: 39.43 G/DL | MEAN CORPUSCULAR VOLUME [3]: 59.9 fL | MONOCYTE [3]: 0.33% | NEUTROPHIL [3]: 11.33% | NUCLEATED RED BLOOD CELLS [3]: 0 /100WBC | PLATELET COUNT [3]: 1304 x10E3/uL | ALANINE AMINOTRANSFERASE [3]: 84.67 u/L | ALBUMIN [3]: 4.3 G/DL | ALKALINE PHOSPHATASE [3]: 341.67 u/L | ASPARTATE AMINOTRANSFERASE [3]: 125.33 u/L | BLOOD UREA NITROGEN [3]: 16 mg/dL | CARBON DIOXIDE [3]: 30.67 mmol/L | CHLORIDE [3]: 97.33 MEQ/L | CHOLESTEROL [3]: 63.67 mg/dL | CREATINE PHOSPHOKINASE [3]: 240.33 u/L | CREATININE [3]: 0.2 mg/dL | GLUCOSE [3]: 149 mg/dL | LACTATE DEHYDROGENASE [3]: 314.33 u/L | LIPASE [3]: 9.33 u/L | PHOSPHORUS [3]: 13.87 mg/dL | POTASSIUM [3]: 6.31 MEQ/L | SODIUM [3]: 144.83 MEQ/L | TOTAL BILIRUBIN [3]: 0.23 mg/dL | TOTAL PROTEIN [3]: 5.73 G/DL | URIC ACID [3]: 1.6 mg/dL | ABSOLUTE BASOPHIL [4]: 0 CELLS/uL | ABSOLUTE EOSINOPHIL [4]: 54.33 CELLS/uL | ABSOLUTE LYMPHOCYTE [4]: 15272.67 CELLS/uL | ABSOLUTE MONOCYTE [4]: 230 CELLS/uL | ABSOLUTE SEGMENTED NEUTROPHIL [4]: 2109.67 CELLS/uL | BASOPHIL [4]: 0% | EOSINOPHIL [4]: 0.33% | ERYTHROCYTE COUNT [4]: 5.71 x10E6/uL | HEMATOCRIT [4]: 34.87% | HEMOGLOBIN [4]: 14.07 G/DL | LEUKOCYTE COUNT [4]: 17.67 x10E3/uL | LYMPHOCYTE [4]: 86.33% | MEAN CORPUSCULAR HEMOGLOBIN [4]: 24.67 pg | MEAN CORPUSCULAR HEMOGLOBIN CONCENTRATION [4]: 40.33 G/DL | MEAN CORPUSCULAR VOLUME [4]: 61.07 fL | MONOCYTE [4]: 1.33% | NEUTROPHIL [4]: 12% | NUCLEATED RED BLOOD CELLS [4]: 0 /100WBC | PLATELET COUNT [4]: 1192 x10E3/uL | ALANINE AMINOTRANSFERASE [4]: 71 u/L | ALBUMIN [4]: 4.37 G/DL | ALKALINE PHOSPHATASE [4]: 303 u/L | ASPARTATE AMINOTRANSFERASE [4]: 113.33 u/L | BLOOD UREA NITROGEN [4]: 18.67 mg/dL | CARBON DIOXIDE [4]: 27.67 mmol/L | CHLORIDE [4]: 103.33 MEQ/L | CHOLESTEROL [4]: 67.33 mg/dL | CREATINE PHOSPHOKINASE [4]: 298.67 u/L | CREATININE [4]: 0.19 mg/dL | GLUCOSE [4]: 164.33 mg/dL | LACTATE DEHYDROGENASE [4]: 269.33 u/L | LIPASE [4]: 10 u/L | PHOSPHORUS [4]: 14 mg/dL | POTASSIUM [4]: 6.25 MEQ/L | SODIUM [4]: 149.6 MEQ/L | TOTAL BILIRUBIN [4]: 0.2 mg/dL | TOTAL PROTEIN [4]: 5.8 G/DL | URIC ACID [4]: 1.67 mg/dL
